Consider 50 compounds from patent US11780845B2 (Relay Therapeutics, Inc., priority 2019, dated 2023).

In one experiment the target is FGFR2 (Homo sapiens (Human), UniProt P21802). The experiment in a line: Biochemical FGFR2 Caliper assay.
A further experiment has as its system SNU-16. Nature of the experiment: Cell SNU-16 assay. Format: cell-based.
The mark [1] stands for this setting: Homo sapiens, SNU-16, SNU-16 cells.

Molecules are shown by their SMILES. Some results are limits rather than exact numbers.

Chain of FGFR2 (P21802 22-821): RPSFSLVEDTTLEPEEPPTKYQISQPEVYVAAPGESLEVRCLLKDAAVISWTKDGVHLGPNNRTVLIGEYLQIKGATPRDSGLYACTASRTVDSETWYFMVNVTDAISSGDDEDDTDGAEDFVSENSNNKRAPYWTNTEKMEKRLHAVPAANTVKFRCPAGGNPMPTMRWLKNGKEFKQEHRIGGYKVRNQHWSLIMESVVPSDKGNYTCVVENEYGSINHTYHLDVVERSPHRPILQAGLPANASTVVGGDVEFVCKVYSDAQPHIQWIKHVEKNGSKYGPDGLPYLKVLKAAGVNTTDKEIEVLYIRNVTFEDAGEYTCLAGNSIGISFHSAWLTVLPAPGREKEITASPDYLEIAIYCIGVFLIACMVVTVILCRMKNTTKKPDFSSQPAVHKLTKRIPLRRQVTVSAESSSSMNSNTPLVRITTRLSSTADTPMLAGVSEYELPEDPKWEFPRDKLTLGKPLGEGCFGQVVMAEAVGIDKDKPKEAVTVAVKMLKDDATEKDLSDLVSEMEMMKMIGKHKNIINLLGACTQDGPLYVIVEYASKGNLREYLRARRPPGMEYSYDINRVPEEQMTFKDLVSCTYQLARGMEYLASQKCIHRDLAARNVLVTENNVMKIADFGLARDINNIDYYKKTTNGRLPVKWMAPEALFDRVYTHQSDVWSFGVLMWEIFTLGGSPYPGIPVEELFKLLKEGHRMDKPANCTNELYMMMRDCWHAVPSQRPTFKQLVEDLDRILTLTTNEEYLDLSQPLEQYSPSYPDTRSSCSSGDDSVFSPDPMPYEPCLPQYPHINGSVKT

Usually IC50 stands for the concentration needed to halve the response being measured. With `C=CC(=O)N1CC(c2c(-c3ccc(C(=O)c4nccc(C)n4)cc3F)c3c(N)ncnc3n2C)C[C@@H]1C` (stereo partly shown) [Example 886], the IC50 at FGFR2 was 250 to 1000 nM; in the experiment with SNU-16 (SNU-16 cells), at most 100 nM.
As for `C#Cc1cc(C)c(-c2c(-c3ccc(Oc4nccc(C)n4)cc3)c3c(N)ncnc3n2C)cn1` [Example 1073], the IC50 on FGFR2 and in the experiment on SNU-16 (setting [1]) was 1000 to 100000 nM throughout.
With `C=C(C)C(=O)Nc1ccc(-c2c(-c3ccc4c(C(=O)NCC5CC5)n[nH]c4c3)c3c(N)ncnc3n2C)cc1` [Example 1324], the IC50 against FGFR2 and in the experiment with SNU-16 (setting [1]) was 1000 to 100000 nM each time.
As for `C#Cc1ncc(-c2c(-c3ccc(Oc4nccc(C)n4)cn3)c3c(N)ncnc3n2C)c(OC)c1F` [Example 1490], the IC50 against FGFR2 and in the experiment with SNU-16 (setting [1]) was 1000 to 100000 nM throughout.
Regarding `C=C1CCc2cc(-c3c(-c4ccc(Oc5nccc(C)n5)cc4)c4c(N)ncnc4n3C)ccc2C1=O` [Example 1311], the IC50 against FGFR2 was below 100 nM; in the experiment with SNU-16 (setting [1]), 250 to 1000 nM.
Turning to `C=C(C)C(=O)Nc1cc(C)c(-c2c(-c3ccc(Oc4nccc(C)n4)cc3)c3c(N)ncnc3n2C)c(C)c1` [Example 1165], the results for the IC50 at FGFR2 and with SNU-16 (setting [1]) were below 100 nM and at most 100 nM, respectively.
For `C=C(C)C(=O)Nc1ccc(-c2c(-c3ccc4ncccc4c3)c3c(N)ncnc3n2C)cc1` [Example 1282], the IC50 against FGFR2 and in the experiment with SNU-16 (setting [1]) was 1000 to 100000 nM throughout.
Take `Cc1ccnc(Oc2ccc(-c3c(-c4ccc(NCC5CO5)cc4)n(C)c4ncnc(N)c34)cc2)n1` (stereo not shown) [Example 948]: the IC50 against FGFR2 and in the experiment with SNU-16 (setting [1]) was 1000 to 100000 nM each time.
For the compound `C=CC(=O)N1CCC(c2c(-c3ccc(N4CCNC4=O)cc3)c3c(N)ncnc3n2C)C1` (stereo not shown) [Example 803], the IC50 at FGFR2 and with SNU-16 (setting [1]) was 1000 to 100000 nM each time.
On to `C=C(C)C(=O)Nc1ccc(-c2c(-c3cnc(-c4cccc(OC)c4)s3)c3c(N)ncnc3n2C)cc1` [Example 1420], for which the 50% inhibitory concentration (IC50) at FGFR2 and with SNU-16 (setting [1]) was 250 to 1000 nM each time.
Consider `C=CC(=O)N(C)C1CCC(c2c(-c3ccc(Oc4cccc(C)n4)cc3)c3c(N)ncnc3n2C)C1` (stereo not shown) [Example 816], for which the values for the half-maximal inhibitory concentration (IC50) at FGFR2 and with SNU-16 (setting [1]) were 250 to 1000 nM and 100 to 250 nM, respectively.
`C=Cc1ccc(-c2c(-c3ccccc3)c3c(N)ncnc3n2C)cn1` [Example 1194]: the half-inhibitory concentration (IC50) at FGFR2 and in the experiment on SNU-16 (setting [1]) was 1000 to 100000 nM throughout.
With `C=CC(=O)N1C[C@H](c2c(-c3ccc(C(=O)N4CCCCC4)cc3)c3c(N)ncnc3n2C)C[C@@H]1C` (single isomer, unassigned) [Example 888], the IC50 on FGFR2 and with SNU-16 (setting [1]) was 1000 to 100000 nM each time.
In the case of `C=CC(=O)N1CCC(n2cc(-c3c(-c4ccc(C(=O)NCC(C)(C)OC)cc4)c4c(N)ncnc4n3C)cn2)CC1` [Example 851], the IC50 against FGFR2 and with SNU-16 (setting [1]) was 1000 to 100000 nM in each case.
With `C#Cc1cc(F)c(-c2c(-c3ccc(Oc4nccc(C)n4)c(F)c3)c3c(N)ncnc3n2C)cn1` [Example 1198], the values for the IC50 against FGFR2 and in the experiment on SNU-16 (setting [1]) were below 100 nM and at most 100 nM, respectively.
Consider `C=CC(=O)Nc1ccc(-c2c(C3=CC[C@@H](C(=O)N4CCCC4)CC3)c3c(N)ncnc3n2C)c(C)c1` (single isomer, unassigned) [Example 1102], for which the half-inhibitory concentration (IC50) at FGFR2 was below 100 nM; with SNU-16 (setting [1]), at most 100 nM.
For `C=C(C)C(=O)Nc1ccc(-c2c(-c3ccc(N)nc3)c3c(N)ncnc3n2C)cc1` [Example 1295] the same measures were 1000 to 100000 nM and 1000 to 100000 nM.
Consider `C=C(C)C(=O)Nc1ccc(-c2c(-c3ccc4c(c3)CCOC4)c3c(N)ncnc3n2C)cc1` [Example 1292], for which the half-inhibitory concentration (IC50) against FGFR2 and in the experiment on SNU-16 (setting [1]) was 1000 to 100000 nM throughout.
Consider `C=C(C)C(=O)Nc1ccc(-c2c(-c3ccc4cccnc4c3)c3c(N)ncnc3n2C)cc1` [Example 1277], for which the figures for the IC50 against FGFR2 and in the experiment with SNU-16 (setting [1]) were 250 to 1000 nM and 1000 to 100000 nM, respectively.
For `C#Cc1cc(C)c(-c2c(-c3ccc(Oc4nccc(C)n4)c(F)c3)c3c(N)ncnc3n2C)c(C)n1` [Example 1215] the same measures were below 100 nM and at most 100 nM.
As to `C=CC(=O)NC1CCC(c2c(-c3ccc(Oc4cccc(C)n4)cc3)c3c(N)ncnc3n2C)C1` (stereo not shown) [Example 810], the IC50 against FGFR2 was below 100 nM; with SNU-16 (setting [1]), at most 100 nM.
For `C#Cc1cc(C)c(-c2c(-c3ccc(Oc4nccc(C)n4)cc3)c3c(N)ncnc3n2C)nn1` [Example 1136] the same measures were below 100 nM and at most 100 nM.
For `C=C(C)C(=O)Nc1ccc(-c2[nH]c3ncnc(N)c3c2-c2ccc(Oc3cccc(C)n3)cc2)nc1` [Example 857] the same measures were 1000 to 100000 nM and 1000 to 100000 nM.
In the case of `C#Cc1ncc(-c2c(-c3ccc(C(=O)N4CCCC4)cc3)c3c(N)ncnc3n2C)cn1` [Example 968], the IC50 against FGFR2 and in the experiment on SNU-16 (setting [1]) was 250 to 1000 nM throughout.
Turning to `C=C(C)C(=O)Nc1cnn(C)c1-c1c(-c2ccc(Oc3nccc(C)n3)cc2)c2c(N)ncnc2n1C` [Example 1072], the concentration for half-maximal inhibition (IC50) against FGFR2 and in the experiment on SNU-16 (setting [1]) was 250 to 1000 nM each time.
As to `C=C(C)C(=O)Nc1ccc(-c2c(-c3ccc(Oc4cccc(C)n4)cc3)c3ncncc3n2C)cc1` [Example 820], the 50% inhibitory concentration (IC50) against FGFR2 was below 100 nM; with SNU-16 (setting [1]), at most 100 nM.
With `C=CC(=O)N1CC[C@@H](c2c(C3=CC[C@H](C(=O)N4CCCC4)CC3)c3c(N)ncnc3n2C)C1` (single isomer, unassigned) [Example 887], the IC50 on FGFR2 and with SNU-16 (setting [1]) was 1000 to 100000 nM each time.
For the compound `C=C(C)C(=O)Nc1ccc(-c2c(-c3ccc(C(=O)N[C@H]4C[C@H](F)C4)c(COC)c3)c3c(N)ncnc3n2C)cc1` [Example 966], the IC50 on FGFR2 was below 100 nM; with SNU-16 (setting [1]), at most 100 nM.
With `C#Cc1ncc2ccc(-c3c(-c4ccc(Oc5nccc(C)n5)c(F)c4)c4c(N)ncnc4n3C)cc2n1` [Example 1379], the half-maximal inhibitory concentration (IC50) is 100 to 250 nM at FGFR2 and at most 100 nM with SNU-16 (setting [1]).
For the compound `C=CC(=O)N[C@H]1CCN(c2cccc(-c3c(-c4ccc(Oc5cccc(C)n5)cc4)c4c(N)ncnc4n3C)c2)C1` (single isomer, unassigned) [Example 1031], the half-maximal inhibitory concentration (IC50) at FGFR2 was below 100 nM; in the experiment on SNU-16 (setting [1]), 100 to 250 nM.
`C=C(C)C(=O)Nc1ccc(-c2c(-c3ccc4c(c3)OC[C@H]4c3cccc(C)n3)c3c(N)ncnc3n2C)cc1` (single isomer, unassigned) [Example 920]: the figures for the IC50 at FGFR2 and in the experiment on SNU-16 (setting [1]) were below 100 nM and at most 100 nM, respectively.
For `C=CC(=O)Nc1ccc(-c2cn3ncnc(N)c3c2-c2ccc(C(=O)N3CCCCC3)cc2)cc1` [Example 837] the same measures were below 100 nM and at most 100 nM.
Consider `C=C(C)C(=O)Nc1ccc(-c2cn3ncnc(N)c3c2-c2ccc(C(=O)NC3CCOC3)cc2)cc1` (stereo not shown) [Example 841], for which the IC50 at FGFR2 and in the experiment on SNU-16 (setting [1]) was 250 to 1000 nM in each case.
On to `C#Cc1ccc2c(cc(-c3c(-c4ccc(Oc5nccc(C)n5)c(F)c4)c4c(N)ncnc4n3C)n2C)n1` [Example 1461], for which the 50% inhibitory concentration (IC50) lay within 250 to 1000 nM against FGFR2 and 100 to 250 nM with SNU-16 (setting [1]).
As for `Cn1c([C@H]2CCN(C#N)C2)c(-c2ccc(C(=O)N3CCCC3)cc2)c2c(N)ncnc21` (single isomer, unassigned) [Example 861], the half-maximal inhibitory concentration (IC50) against FGFR2 and in the experiment with SNU-16 (setting [1]) was 1000 to 100000 nM each time.
In the case of `C=Cc1nc2ccc(-c3c(-c4ccc(C(=O)N5CCCC5)cc4)c4c(N)ncnc4n3C)cc2n1C` [Example 895], the IC50 against FGFR2 and with SNU-16 (setting [1]) was 1000 to 100000 nM throughout.
As for `C#Cc1cc2c(cn1)-c1c(-c3ccc(Oc4nccc(C)n4)c(F)c3)c3c(N)ncnc3n1C[C@@H](C)O2` [Example 1456], the IC50 against FGFR2 was below 100 nM; with SNU-16 (setting [1]), at most 100 nM.
In the case of `C=C(C)C(=O)N1CC=C(c2c(-c3ccc(Oc4cccc(C)n4)cc3)c3c(N)ncnc3n2C)[C@@H]1C` (single isomer, unassigned) [Example 931], the concentration for half-maximal inhibition (IC50) was 250 to 1000 nM against FGFR2 and 1000 to 100000 nM in the experiment with SNU-16 (setting [1]).
Take `C#Cc1cnc2cc(-c3c(-c4ccc(Oc5nccc(C)n5)c(F)c4)c4c(N)ncnc4n3C)c(C)cc2n1` [Example 1428]: the 50% inhibitory concentration (IC50) was below 100 nM against FGFR2 and at most 100 nM with SNU-16 (setting [1]).
Take `CN(C)C/C=C/C(=O)Nc1ccc(-c2c(C3=CC[C@H](C(=O)N4CCCC4)CC3)c3c(N)ncnc3n2C)cc1` (single isomer, unassigned) [Example 1042]: the results for the half-maximal inhibitory concentration (IC50) at FGFR2 and in the experiment with SNU-16 (setting [1]) were below 100 nM and at most 100 nM, respectively.
For the compound `C=C(C)C(=O)Nc1ccc(-c2c(N3CC[C@@H](C(=O)N4CCCC4)CC3=O)c3c(N)ncnc3n2C)cc1` (single isomer, unassigned) [Example 925], the IC50 is below 100 nM on FGFR2 and at most 100 nM with SNU-16 (setting [1]).
On to `C=C(C)C(=O)Nc1ccc(-c2c(-c3cnc(-c4ccc(F)cc4)s3)c3c(N)ncnc3n2C)cc1` [Example 1424], for which the results for the IC50 on FGFR2 and in the experiment with SNU-16 (setting [1]) were 100 to 250 nM and 250 to 1000 nM, respectively.
For the compound `C=C(C)C(=O)Nc1ccc(-c2c(C3=CC[C@H](C(=O)N4CCCC45CCC5)CC3)c3c(N)ncnc3n2C)cc1` [Example 999], the concentration for half-maximal inhibition (IC50) on FGFR2 was below 100 nM; in the experiment with SNU-16 (setting [1]), at most 100 nM.
With `C=C(C)C(=O)Nc1ccc(-c2c(-c3ccc(Oc4cccc(C)n4)cc3)c3c(N)ncnn3c2C)cc1` [Example 836], the IC50 is below 100 nM at FGFR2 and at most 100 nM in the experiment on SNU-16 (setting [1]).
With `C#Cc1ncc(-c2c(-c3ccc(Oc4nccc(C)n4)c(F)c3)c3c(N)ncnc3n2C)c(OC)c1F` [Example 1336], the IC50 on FGFR2 is below 100 nM; in the experiment with SNU-16 (setting [1]) it was at most 100 nM.
In the case of `C=C(C)C(=O)Nc1ccc(-c2c(-c3ccc(-c4cccc(O)c4)nc3)c3c(N)ncnc3n2C)cc1` [Example 1372], the IC50 against FGFR2 and with SNU-16 (setting [1]) was 1000 to 100000 nM throughout.
In the case of `C=CC(=O)N1CC[C@H](c2c(-c3ccc(Oc4cccc(C)n4)cc3)c3c(N)ncnc3n2C)[C@H]1C` (single isomer, unassigned) [Example 941], the figures for the IC50 on FGFR2 and in the experiment on SNU-16 (setting [1]) were 250 to 1000 nM and 100 to 250 nM, respectively.
As for `Cc1cccc(Oc2ccc(-c3c(-c4cccc(NC#N)c4)n(C)c4ncnc(N)c34)cc2)n1` [Example 1121], the IC50 against FGFR2 is below 100 nM; in the experiment on SNU-16 (setting [1]), at most 100 nM.
For `C#Cc1ncc(-c2c(-c3ccc(Oc4nccc(C)n4)c(F)c3)c3c(C)ncnc3n2C)c(C)n1` [Example 1170] the same measures were below 100 nM and at most 100 nM.
For the compound `C=C(C)C(=O)Nc1ccc(-c2c(-c3ccc(-c4cc(=O)[nH][nH]4)cc3)c3c(N)ncnc3n2C)cc1` [Example 1300], the 50% inhibitory concentration (IC50) against FGFR2 and with SNU-16 (setting [1]) was 1000 to 100000 nM throughout.
